# Test results reported in patent US11819499B2, “Single-dose, ready-to-use injectable formulations” (BioSplice Therapeutics, Inc., priority 2016, dated 2023).
# Legend:
# Assay type in all cases: physicochemical
# [1] = Solubility of the starting solid by the gravimetric method; settings: at RT and at 50° C. in all solvents tested except DMF and DMSO
# [2] = Drying or heating in a DSC chamber followed by XRD (form conversion)
# Protocol: The Form 1 solid was dried at 75° C. under vacuum overnight, and XRD, DSC, and TGA scans were performed. […] However, the DSC scans indicated the absence of endotherm. The loss of the early peak on the DSC scan had no effect on the XRD trace, showing that the wide endotherm between 50-100° C. on DSC scan was due to the free solvent.
# The Form 1 solid was heated in a DSC chamber to 305° C. (past the endotherm/exotherm around 280° C.), and then scanned by XRD. […] It can be concluded that the endotherm/exotherm around 280° C. might be due to melting/crystallization events.
# The Form 2 solid was heated in a DSC machine to 90° C. (past the wide endotherm between 50-100° C.); to 270° C. (past the endotherm/exotherm around 240° C.); and finally to 330° C. (past the […]). The residual solid was analyzed by XRD. […] The wide endotherm between 50-100° C. might be free solvent or hydrate. […] Thus, the exotherm around 290° C. was a re-crystallization event. According to an XRD and DSC overlay, the behavior of Form 2* was similar to Form 2.
# This has been confirmed for Forms 1 and 2.
# Form 13 solid was heated in a DSC chamber to 170° C. (past the endotherm between 50-100° C.), and then scanned by XRD. […] It can be concluded that the endotherm between 50-100° C. is due to bonded water.
# Form 13 solid was heated in a DSC chamber to 330° C. (past the endotherm/exotherm around 300° C.), and then scanned by XRD. […] It can be concluded that the endotherm/exotherm is due to melting/crystallization events.
# [3] = Reslurry experiments (polymorph screen) in 39 pure and binary solvents at RT and 50° C. for 5 days, XRD of wet and dry samples
# Protocol: Reslurry experiments in various solvents were performed. Approximately 30-80 mg of the starting solid (a non-stoichiometric or stoichiometric hydrate of Form 1 having between 1% and about 20% by weight water) was slurried in 39 different solvents (pure and binary solvents; the ratio of organic solvent/water (V/V) was 95%/5%) at RT and 50° C. for 5 days. Three solvates, one hydrate, and eleven non-solvated forms were identified. […] XRD of both wet and dry samples were scanned (FIG. 12A (dry sample)).
# The slurry experiments identified 3 solvated forms from wet samples (Solvates 1, 2, and 3); 2 non-stoichiometric hydrates of Form 1 (Forms 12 and 13); and 11 non-solvated forms (Forms 1-11). In some instances, similar XRD scans with minor differences were obtained. These were considered to be part of the same class (e.g., the same form). For example, XRD scans of Form 2 and Form 2* were similar and were considered to belong to the same class. The solvated forms were obtained from wet sample analysis; after drying, the sample indicated a different XRD.
# Solvate 1 was obtained from acetone at RT, and after drying, a low crystallinity solid was generated. Solvate 2 was obtained from acetone (at RT) and acetone/water (at RT), and after drying, Form 4** was generated. Solvate 3 was obtained from EtOH/water at RT, and after drying, Form 2 was generated.
# [4] = Exposure to relative humidity / air followed by XRD
# Text: FIGS. 15A-15D are scans of Form 1 in the presence of increasing relative humidity (RH), an example of a non-stoichiometric or stoichiometric hydrate of polymorph Form 1 of the compound of Formula (I). FIG. 15A is an x-ray powder diffraction scan of Form 1 exposed to 10% RH as the anhydrous Form 1. FIG. 15B is an x-ray powder diffraction scan of Form 1 exposed to 20% RH as a partial hydrate of Form 1. FIG. 15C is an x-ray powder diffraction scan of Form 1 exposed to 30% RH as a hydrate of Form 1 (≈10-12% water uptake). FIG. 15D is an x-ray powder diffraction scan of Form 1 exposed to 90% RH as a full hydrate of Form 1 (≈17-20% water uptake). […] The hydrate lost its water below 30% RH. […] The crystal lattice of Form 1 expanded when water was sorbed, giving rise to XRD peaks at ˜5, ˜7 and ˜11 degrees while maintaining the main XRD pattern. The hydrates of Form 1 of a compound of Formula (I) (Form 11) were fully reversible, and lost water when exposed to % RH of less than 20%, turning Form 11 to hydrated forms of Form 1 and to the anhydrous Form 1. Solvates 1 and 2 solids were exposed to air overnight, and then analyzed by XRD. After the analysis, the solids were dried at 50° C. under vacuum, and then analyzed by XRD again.
# [5] = Dynamic vapor sorption (DVS) scan; settings: at 90% RH
# Text: The purity of the Form 13 sample was 98.8%; the KF of an undried Form 13 sample was 35.7%.
# [6] = Competitive slurry experiments between polymorph forms (15 forms mixed, 3-5 days, XRD); settings: water at RT and 50° C.
# Protocol: In order to find out the thermodynamic stability between the different forms, several competitive slurry experiments were carried out. Form 1, Form 2, Form 2*, Form 3, Form 4, Form 4*, Form 4**, Form 5, Form 7, Form 8, Form 9, Form 10, Form 11, Form 11*, and Form 13 (10 mg for each) was mixed and slurried in 2 mL of solvent at both RT and 50° C. The solids were slurried for 3-5 days and then analyzed by XRD.
# [7] = Exposure to relative humidity / air followed by XRD; remark: listed apart in the source
# [8] = reslurry in Acetonitrile/water (5% water), 50° C.
# [9] = reslurry in DCM/water (5% water), 50° C.
# [10] = reslurry in DCM/water (5% water), RT
# [11] = reslurry in Heptane/water (5% water), 50° C.
# [12] = reslurry in Heptane/water (5% water), RT
# [13] = reslurry in IPAc/water (5% water), 50° C.
# [14] = reslurry in MA/water (5% water), RT
# [15] = reslurry in MIBK/water (5% water), 50° C.
# [16] = reslurry in MeOH/water (5% water), 50° C.
# [17] = reslurry in MtBE/water (5% water), 50° C.
# [18] = reslurry in Toluene/water (5% water), 50° C.
# [19] = reslurry in Toluene/water (5% water), RT
# [20] = reslurry in n-Butanol/water (5% water), 50° C.
# [21] = reslurry in n-Butanol/water (5% water), RT
# [22] = reslurry in n-Butyl acetate/water (5% water), 50° C.
# [23] = reslurry in n-Butyl acetate/water (5% water), RT
smiles,measurement,setting,value
"CC(C)CC(=O)Nc1cncc(-c2ccc3[nH]nc(-c4nc5c(-c6cccc(F)c6)cncc5[nH]4)c3c2)c1 [starting solid, N-(5-(3-(7-(3-fluorophenyl)-3H-imidazo[4,5-c]pyridin-2-yl)-1H-indazol-5-yl)pyridin-3-yl)-3-methylbutanamide]",Solubility (in words),[1],low solubility
"CC(C)CC(=O)Nc1cncc(-c2ccc3[nH]nc(-c4nc5c(-c6cccc(F)c6)cncc5[nH]4)c3c2)c1 [Form 13, N-(5-(3-(7-(3-fluorophenyl)-3H-imidazo[4,5-c]pyridin-2-yl)-1H-indazol-5-yl)pyridin-3-yl)-3-methylbutanamide]",form after heating (XRD),[2]; heated in a DSC chamber to 170° C.,converted to Form 1
same,form after heating (XRD),[2]; heated to 330° C.,converted to Form 9
same,form upon drying,[2]; upon drying,converted to Form 1
same,Dry (form by XRD),[3]; [8],Form 13
same,Wet (form by XRD),[3]; [8],Form 13
same,Dry (form by XRD),"[3]; reslurry in DCM, 50° C.",Form 13
same,Wet (form by XRD),"[3]; reslurry in DCM, 50° C.",Form 13
same,Dry (form by XRD),[3]; [9],Form 1
same,Wet (form by XRD),[3]; [9],Form 13
same,Dry (form by XRD),[3]; [10],Form 1
same,Wet (form by XRD),[3]; [10],Form 13
same,Dry (form by XRD),"[3]; reslurry in Heptane, 50° C.",Form 13
same,Wet (form by XRD),"[3]; reslurry in Heptane, 50° C.",Form 13
same,Dry (form by XRD),[3]; [11],Form 1
same,Wet (form by XRD),[3]; [11],Form 13
same,Dry (form by XRD),[3]; [12],Form 12
same,Wet (form by XRD),[3]; [12],Form 13
same,Dry (form by XRD),[3]; [13],Form 13
same,Wet (form by XRD),[3]; [13],Form 13
same,Dry (form by XRD),[3]; [14],Form 1
same,Wet (form by XRD),[3]; [14],Form 13
same,Dry (form by XRD),[3]; [15],Form 1
same,Wet (form by XRD),[3]; [15],Form 13
same,Dry (form by XRD),"[3]; reslurry in MeOH, RT",Form 1
same,Wet (form by XRD),"[3]; reslurry in MeOH, RT",Form 13
same,Dry (form by XRD),[3]; [16],Form 13
same,Wet (form by XRD),[3]; [16],Form 13
same,Dry (form by XRD),[3]; [17],Form 13
same,Wet (form by XRD),[3]; [17],Form 13
same,Dry (form by XRD),[3]; [18],Form 13
same,Wet (form by XRD),[3]; [18],Form 13
same,Dry (form by XRD),[3]; [19],Form 1
same,Wet (form by XRD),[3]; [19],Form 13
same,Dry (form by XRD),[3]; [20],Form 1
same,Wet (form by XRD),[3]; [20],Form 13
same,Dry (form by XRD),[3]; [21],Form 13
same,Wet (form by XRD),[3]; [21],Form 13
same,Dry (form by XRD),[3]; [22],Form 1
same,Wet (form by XRD),[3]; [22],Form 13
same,Dry (form by XRD),[3]; [23],Form 12
same,Wet (form by XRD),[3]; [23],Form 13
same,Dry (form by XRD),"[3]; reslurry in water, 50° C.",Form 13
same,Wet (form by XRD),"[3]; reslurry in water, 50° C.",Form 13
same,Dry (form by XRD),"[3]; reslurry in water, RT",Form 1
same,Wet (form by XRD),"[3]; reslurry in water, RT",Form 13
same,RH below which the hydrate lost its water,[4]; relative humidity,below 30%
same,water absorption (DVS scan),[5],17%
same,thermodynamic stability between forms (competitive slurry),[6],most stable
"CC(C)CC(=O)Nc1cncc(-c2ccc3[nH]nc(-c4nc5c(-c6cccc(F)c6)cncc5[nH]4)c3c2)c1 [Form 1, N-(5-(3-(7-(3-fluorophenyl)-3H-imidazo[4,5-c]pyridin-2-yl)-1H-indazol-5-yl)pyridin-3-yl)-3-methylbutanamide]",XRD after drying,[2]; dried at 75° C. under vacuum overnight,no change
same,form after heating (XRD),[2]; heated in a DSC chamber to 305° C.,converted to Form 9
same,form when heated to just before melting,[2]; heated to just before melting at 364° C.,convert to Form 9
same,RH above which Form 1 tended to convert to hydrate of Form 1 (Form 13),[7],above 4050%
same,water uptake,"[4]; exposed to 30% RH (FIG. 15C), hydrate of Form 1",10-12%
same,water uptake,"[4]; exposed to 90% RH (FIG. 15D), full hydrate of Form 1",17-20%
same,form when exposed to air,[4]; exposed to air,converts to Form 13
same,water absorption (DVS scan),[5],17%
